This is an account of results in PubChem BioAssay AID1259371 (The Scripps Research Institute Molecular Screening Center, 2018).

The structures appear in SMILES notation. pIC50: −log10 of the molar value. Activity calls are given as the source filed them. The rule behind the calls is not given here.

Chain of Microphthalmia-associated transcription factor (Homo sapiens) (O75030 whole entry, looked up): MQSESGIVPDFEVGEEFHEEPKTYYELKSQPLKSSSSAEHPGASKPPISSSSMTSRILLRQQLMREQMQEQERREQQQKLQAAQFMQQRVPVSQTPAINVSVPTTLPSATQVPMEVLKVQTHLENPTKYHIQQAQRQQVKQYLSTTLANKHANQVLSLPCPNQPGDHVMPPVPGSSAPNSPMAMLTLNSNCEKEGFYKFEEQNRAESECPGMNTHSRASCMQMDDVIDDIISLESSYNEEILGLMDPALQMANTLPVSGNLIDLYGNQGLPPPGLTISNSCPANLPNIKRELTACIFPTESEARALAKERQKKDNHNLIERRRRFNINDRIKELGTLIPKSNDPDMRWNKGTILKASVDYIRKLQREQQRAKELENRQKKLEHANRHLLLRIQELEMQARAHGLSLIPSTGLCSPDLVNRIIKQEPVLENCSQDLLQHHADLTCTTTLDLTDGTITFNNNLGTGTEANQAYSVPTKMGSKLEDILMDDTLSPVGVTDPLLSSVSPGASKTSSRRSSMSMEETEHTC

This assay addresses Microphthalmia-associated transcription factor (Homo sapiens) (UniProt O75030). Put plainly: compounds blocking human MITF signal – biochemical, AlphaScreen, dose response (AID 1259371). To be noted: AlphaScreen biochemical MITF assay, signal inhibition.
Regarding `O=C(COC(=O)COc1ccc(Cl)cc1)NCc1ccco1`, the IC50 (in general, the concentration needed to halve the response being measured) was > 2.4 µM (inactive).

On to `COC(=O)c1ccc(=O)c2nc3/c(=C/O)c(O)cc(=O)c3[nH]c12`, for which the pIC50 (as a rule, −log10 of the IC50, conventionally taken in molar units) is 6.59.

Turning to `O=C1N[C@@H](CC2CCCCC2)C(=O)N2CCN(C(=O)NCc3ccccc3)C[C@H]12`, the IC50 is > 2.16 µM (inactive).

For `CC(C)(C)c1ccc(OCCn2cncn2)c(Cl)c1`, the IC50 is > 6.48 µM (inactive).

With `CN1C(=O)[C@H]2CN(C(=O)NC3CCCCC3)CCN2C(=O)[C@@H]1Cc1ccccc1`, the IC50 result was “inactive”.

For the compound `COC(=O)C1=C(C(=O)OC)C2c3ccccc3C=CN2C(C(=O)OC)=C1C(=O)OC` (stereo not drawn), the IC50 is > 4.07 µM (inactive).

Turning to `C=CC1=C(C)C2=Cc3c(C=C)c(C)c4[n]3[Sn+2][n]3c(c(C)c(CCC(=O)O)c3=CC3=NC(=C4)C(C)=C3CCC(=O)O)=CC1=N2`, the IC50 entry was “inactive”.

Take `CN1C(=O)[C@H]2CN(C(=O)NCc3ccccc3)CCN2C(=O)[C@@H]1Cc1ccccc1`: the IC50 entry is “inactive”.

Regarding `COc1ccc2c(c1)CC(C(=O)Nc1ccc(-c3cn[nH]c3)cc1C(=O)N(C)OC)CO2` (stereo not drawn), the IC50 entry was “inactive”.

For the compound `O=C(OCN1C(=O)c2ccccc2C1=O)c1cc2c(s1)CCC2`, the negative-log IC50 (pIC50) was 6.13.

With `Oc1ccc2c(c1)C1CCCC1(N1CCOCC1)O2` (stereo not drawn), the IC50 entry is “inactive”.

In the case of `O=C1OC(c2cc(C3=N/C(=C\c4ccccc4)C(=O)O3)cc(C3=N/C(=C/c4ccccc4)C(=O)O3)c2)=N/C1=C\c1ccccc1`, the pIC50 is 6.09.

Turning to `Cc1ccc(NC(=O)COC(=O)CCC(=O)Nc2sc3c(c2C(N)=O)CCC3)cc1F`, the IC50 result is “inactive”.

Regarding `COc1cc(N2CCOCC2)ccc1Nc1cc(NC(C)(C)c2ccccc2)c(C(F)(F)F)cn1`, the IC50 entry was “inactive”.

As to `Nc1cc2c(S(=O)(=O)O)cc(S(=O)(=O)O)cc2cc1S(=O)(=O)O`, the IC50 was > 6.48 µM (inactive).

Turning to `O=c1c2ccccc2nc(-c2ccccc2)n1-c1ccccc1O`, the IC50 is > 6.5 µM (inactive).

Regarding `O=C1OC(c2ccc(Cl)cc2Cl)=N/C1=C\c1ccc([N+](=O)[O-])o1`, the IC50 result is “inactive”.

For the compound `O=C(Nc1ccc(C(=O)Nc2ccc(C(=O)Nc3ccc(S(=O)(=O)O)c4cc(S(=O)(=O)O)cc(S(=O)(=O)O)c34)cc2)cc1)Nc1ccc(C(=O)Nc2ccc(C(=O)Nc3ccc(S(=O)(=O)O)c4cc(S(=O)(=O)O)cc(S(=O)(=O)O)c34)cc2)cc1`, the pIC50 was 6.01.

Take `O=C1N[C@H](Cc2ccc(O)cc2)C(=O)N2CCN(C(=O)NCc3ccccc3)C[C@H]12`: the IC50 result is “inactive”.

`O=C(O)c1ccc(NC2OC(CO)C(O)C2O)cc1` (stereo not drawn): the IC50 result is “inactive”.

For `CCN(CC)C(=S)NC(=O)/C=C/c1ccco1`, the pIC50 is 7.05.

In the case of `CN(c1cccc(NS(=O)(=O)c2ccc([N+](=O)[O-])cc2)c1)S(C)(=O)=O`, the IC50 was > 6.48 µM (inactive).

For the compound `CCN(CC)c1ccc(C(c2c(C)[nH][nH]c2=O)c2c(C)[nH][nH]c2=O)cc1`, the pIC50 is 6.54.

Turning to `CN(N=O)c1cc(O)ccc1O`, the pIC50 was 7.01.

Regarding `O=C(c1ccncc1)N1C2C=CC(C2)C1(C(F)(F)F)C(F)(F)F` (stereo not drawn), the IC50 entry was “inactive”.

For the compound `C[C@@H](O)[C@@H]1NC(=O)[C@H]2CN(C(=O)NCc3ccccc3)CCN2C1=O`, the IC50 was > 2.16 µM (inactive).

`O=C1Nc2ccc(S(=O)(=O)NCc3ccccc3)cc2C1=O`: the IC50 entry was “inactive”.

On to `CN=C1SC(CC(=O)Nc2cccc(C(=O)O)c2)C(=O)N1C` (stereo not drawn), for which the IC50 entry was “inactive”.

With `Cc1cc(C)n(C(=O)/C=C/c2ccco2)n1`, the pIC50 is 6.09.

As to `COc1ccc2c(c1)C1NC(=S)N(c3cccc(C)c3)C(C)(O2)C1C(=O)Nc1ccc(C)cc1C` (stereo not drawn), the IC50 is > 5.71 µM (inactive).

As to `Oc1ccc(CCNc2cc(-c3cccs3)ncn2)cc1`, the IC50 is > 6.7 µM (inactive).

In the case of `CC(C)[C@H]1NC(=O)[C@H]2CN(C(=O)NCc3ccccc3)CCN2C1=O`, the IC50 result is “inactive”.

Turning to `O=C(O)/C=C/c1ccc([N+](=O)[O-])o1`, the IC50 result was “inactive”.

As for `Cc1c(NC(=O)C(C)OC(=O)c2cc3c(s2)CCC3)c(=O)n(-c2ccccc2)n1C` (stereo not drawn), the pIC50 is 6.02.

Take `CN(CCOC(=O)/C=C/c1ccco1)Cc1ccccc1`: the pIC50 was 7.32.

`C/C(=N\NC(=O)CC1=NNC(=O)C1)c1ccco1`: the IC50 entry was “inactive”.

For `C=C1c2cccc(O)c2C(O)=C2C(=O)[C@]3(O)C(O)=C(C(N)=O)C(=O)[C@@H](N(C)C)[C@@H]3[C@@H](O)[C@H]12`, the pIC50 is 7.40.

For the compound `O=[N+]([O-])c1ccc(Br)c2c1no[n+]2[O-]`, the IC50 entry is “inactive”.

`C[C@@H]1NC(=O)[C@H]2CN(C(=O)NCc3ccccc3)CCN2C1=O`: the IC50 entry was “inactive”.

With `Cc1cc(NC(=O)C2CCN(C(=O)c3ccc(-n4cccc4)cc3)CC2)no1`, the IC50 entry was “inactive”.

Consider `CCC[C@@H]1NC(=O)[C@H]2CN(C(=O)NC3CCCCC3)CCN2C1=O`, for which the pIC50 is 6.12.

For `O=C(NCCN1CCOCC1)c1cccc(CN(C(=O)c2nc3ccc(-c4cn[nH]c4)cc3s2)C2CC2)c1`, the IC50 result was “inactive”.

With `CCC(C)NCCOc1cccc(Br)c1` (stereo not drawn), the IC50 is > 6.48 µM (inactive).

`Cc1oc(C(=O)O)cc1CSCCSCc1cc(C(=O)O)oc1C`: the IC50 is > 2.16 µM (inactive).

Take `O=C(/C=C/c1ccc(-c2cccc(C(F)(F)F)c2)o1)c1ccco1`: the pIC50 is 6.80.

In the case of `CCOc1ccccc1N1CCN(Cc2cc(OC)c(O)c([N+](=O)[O-])c2)CC1`, the IC50 was > 6.48 µM (inactive).

On to `O=C(Nc1cc(S(=O)(=O)O)cc2cc(S(=O)(=O)O)cc(O)c12)c1ccccc1`, for which the pIC50 is 6.02.

For `O=C(Nc1ccc(Oc2ccccc2)cc1)c1ccnc(-c2cccs2)c1`, the IC50 was > 6.71 µM (inactive).

As for `O=C(O)c1cc(-n2cccc2)ccc1Cl`, the pIC50 is 6.57.

As for `CSc1ccc(C(=O)O)s1`, the IC50 result is “inactive”.

Take `O=c1[nH]c(-c2ccco2)nc2sc3c(c12)CCCC3`: the pIC50 was 7.37.

In the case of `CN(C)CCNc1nc(C2COc3ccccc3O2)nc2ccc(-c3cn[nH]c3)cc12` (stereo not drawn), the IC50 entry was “inactive”.

Consider `O=C(NC1CCN(Cc2ccccc2)CC1)c1ccc2nc(-c3cccs3)sc2c1`, for which the IC50 is > 6.38 µM (inactive).

For the compound `COc1cc(/C=N/N=C2\NC(=O)C(CC(=O)O)S2)ccc1OCc1ccc(C)cc1` (stereo not drawn), the IC50 entry is “inactive”.

Turning to `CCOC(=O)C1C2NC(=S)N(CC)C1(C)Oc1ccc(Br)cc12` (stereo not drawn), the IC50 was > 6.31 µM (inactive).

As to `O=C(O)c1cc([N+](=O)[O-])cc2c1-c1c(cc([N+](=O)[O-])cc1[N+](=O)[O-])/C2=C/c1ccco1`, the IC50 entry is “inactive”.

As for `CN(C)C1C(=O)C(C(N)=O)=C(O)C2(O)C(=O)C3=C(O)c4c(O)cccc4C(C)(O)C3CC12` (stereo not drawn), the IC50 is > 6.48 µM (inactive).

`NC(=O)/C(=C\c1cccc([N+](=O)[O-])c1)NC(=O)c1ccc(Br)cc1`: the IC50 was > 6.48 µM (inactive).

As for `O=C(O)c1cc(N/N=C/c2ccc(N3CCOCC3)s2)ccc1Cl`, the pIC50 is 6.93.

`CN(C)c1ccc(NC(=O)CSc2ncccc2C(=O)O)cc1`: the IC50 entry was “inactive”.

For `O=C(Nc1ccc(-c2cn[nH]c2)c(C(F)(F)F)c1)C1COc2ccccc2O1` (stereo not drawn), the IC50 was > 2.16 µM (inactive).

Turning to `O=C(O)c1cc(NN=C2CCCC2)ccc1Cl`, the pIC50 was 6.39.

As for `O=C(Nc1ccc(N2CCOCC2)cc1)c1ccc2nc(Nc3ccccn3)sc2c1`, the pIC50 is 6.27.

In the case of `COc1cc(OC)c(C(=O)OC2CCCC2=O)cc1OC` (stereo not drawn), the IC50 entry is “inactive”.

As for `Cc1nc(C)n(-c2ccc(Nc3cc(-n4cc(N(c5cccnc5)c5cccnc5)cn4)ccn3)cc2)n1`, the pIC50 is 6.06.

On to `COC(=O)CN(CCN(CC(=O)O)CC(=O)OC)CC(=O)O`, for which the IC50 result is “inactive”.

As to `O=C(O)c1cc(S(=O)(=O)Nc2ccc(-n3cnnn3)cc2)ccc1O`, the IC50 entry was “inactive”.

With `C/C(=N\Nc1ccc(S(=O)(=O)O)cc1)c1cccc(Br)c1`, the IC50 result was “inactive”.

Regarding `CCOc1cccc(OCC)c2c(C)nc(C)c1-2`, the pIC50 is 6.68.

As for `N#Cc1cc([N+](=O)[O-])ccc1NC(=O)COC(=O)c1cc(-c2ccco2)nc2ccccc12`, the IC50 entry was “inactive”.

Turning to `c1cc2c(cc1CNc1nc(Nc3ccc(N4CCOCC4)cc3)c3ncn(C4CCCCC4)c3n1)OCO2`, the IC50 entry is “inactive”.

As for `O=[N+]([O-])c1ccc(N/N=C/c2ccco2)c(S(=O)(=O)N2CCOCC2)c1`, the IC50 result is “inactive”.

Take `O=C(C1CCC(Nc2nccc(-c3ccc4nc(C5CC5)[nH]c(=O)c4c3)n2)CC1)N1CCCC1` (stereo not drawn): the IC50 result was “inactive”.

For `O=C(O)CCN(CCC(=O)O)c1ccc(O)cc1`, the pIC50 is 6.86.

For `C[C@H]1C(=O)N2CCN(C(=O)NC3CCCCC3)C[C@@H]2C(=O)N1C`, the IC50 entry was “inactive”.

As to `O=C1N[C@H](Cc2ccc(O)cc2)C(=O)N2CCN(C(=O)NC3CCCCC3)C[C@H]12`, the IC50 was > 2.16 µM (inactive).

For the compound `COc1nccnc1NS(=O)(=O)c1ccc(NC(=O)c2ccc([N+](=O)[O-])c(C)c2)cc1`, the IC50 is > 6.48 µM (inactive).

Consider `CN(C)/C=C/C=C/C(=O)C1CCC/C(=C\C=C\N(C)C)C1=O` (stereo not drawn), for which the pIC50 was 7.07.

As for `C=CCc1cc(Cl)ccc1OCCOCCNCCOC`, the IC50 is > 6.48 µM (inactive).

On to `NC(=O)C1CCN(C(=O)c2cc(-c3ccco3)nc3ccccc23)CC1`, for which the pIC50 was 7.34.

On to `COc1cccc(CC(=O)Nc2nnc(-c3ccco3)c(-c3ccco3)n2)c1`, for which the negative-log IC50 (pIC50) is 6.95.

As to `O=C1NC(=O)/C(=C\c2ccc(O)cc2O)S1`, the IC50 entry is “inactive”.

As for `COc1ccc(C)cc1NC(=O)C(NCC(O)c1ccccc1)c1ccccc1` (stereo not drawn), the IC50 result is “inactive”.

Take `COc1cc(C=Nc2ccc(N(C)C)cc2)cc(I)c1O`: the IC50 is > 6.48 µM (inactive).

As to `CC(=O)Oc1ccccc1N1C(=O)c2ccc(Oc3cccc(N)c3)cc2C1=O`, the pIC50 was 6.32.

For the compound `Cc1ccc(C)n1C(CC(=O)O)c1ccsc1` (stereo not drawn), the pIC50 is 6.59.

For `O=C(/C=C/c1ccco1)NC(=S)Nc1cc(C(=O)O)ccc1Cl`, the pIC50 was 6.84.

Turning to `OCCNc1cc(-c2cccs2)ncn1`, the IC50 result is “inactive”.
